Measured values taken from PubChem BioAssay AID1963875 (Molecular Pharmacology Branch, DTP, NCI, 2024).

Tested on: KRAS-mutant PDC complex spheroid viability
Assay: Anticancer human tumor 186277-243-T-J2-PDC patient-derived colon adenocarcinoma cell line growth inhibition [KRAS2]
Conditions: for IC50: curve of first compound; for viability, T/C: stronger effect = lower value
In short: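 KRAS-mutant tumor cells were grown as spheroids with HUVEC endothelial cells and human MSCs as stroma. Targeted agents were tested alone and with KRAS pathway inhibitors. Doses started at or near clinical Cmax, or 10 microM, descending half-log.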

[1] = second compound 0.1 µM, first compound 0.0316 µM
[2] = second compound 0.1 µM, first compound 0.1 µM
[3] = second compound 0.316 µM, first compound 0.0316 µM
[4] = second compound 0.316 µM, first compound 0.1 µM
[5] = second compound 1 µM, first compound 0.0316 µM
[6] = second compound 1 µM, first compound 0.1 µM
[7] = second compound 3.16 µM, first compound 0.0316 µM
[8] = second compound 3.16 µM, first compound 0.1 µM
[9] = second compound 10 µM, first compound 0.0316 µM
[10] = second compound 10 µM, first compound 0.1 µM
[11] = second compound 0.1 µM, first compound 0.316 µM
[12] = second compound 0.1 µM, first compound 1 µM
[13] = second compound 0.1 µM, first compound 3.16 µM
[14] = second compound 0.1 µM, first compound 10 µM
[15] = second compound 0.316 µM, first compound 0.316 µM
[16] = second compound 0.316 µM, first compound 1 µM
[17] = second compound 0.316 µM, first compound 3.16 µM
[18] = second compound 0.316 µM, first compound 10 µM
[19] = second compound 1 µM, first compound 0.316 µM
[20] = second compound 1 µM, first compound 1 µM
[21] = second compound 1 µM, first compound 3.16 µM
[22] = second compound 1 µM, first compound 10 µM
[23] = second compound 3.16 µM, first compound 0.316 µM
[24] = second compound 3.16 µM, first compound 1 µM
[25] = second compound 3.16 µM, first compound 3.16 µM
[26] = second compound 3.16 µM, first compound 10 µM
[27] = second compound 10 µM, first compound 0.316 µM
[28] = second compound 10 µM, first compound 1 µM
[29] = second compound 10 µM, first compound 3.16 µM
[30] = second compound 10 µM, first compound 10 µM
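Wherever viability, T/C is given: viability read after seven days of compound exposure; 100% = DMSO vehicle-treated spheroids so lower means less viable.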

SMILES	IC50 (second compound 0.1 µM)	IC50 (second compound 0.316 µM)	IC50 (second compound 1 µM)	IC50 (second compound 3.16 µM)	IC50 (second compound 10 µM)	viability, T/C [1]	viability, T/C [2]	viability, T/C [3]	viability, T/C [4]	viability, T/C [5]	viability, T/C [6]	viability, T/C [7]	viability, T/C [8]	viability, T/C [9]	viability, T/C [10]	viability, T/C [11]	viability, T/C [12]	viability, T/C [13]	viability, T/C [14]	viability, T/C [15]	other results
CC(C)n1nc(-c2ccc3oc(N)nc3c2)c2c(N)ncnc21 + COc1cc2nc(C)nc(NC(C)c3cc(N)cc(C(F)(F)F)c3)c2cc1OC1CCOC1	7.67 nM	6.38 nM	15.4 nM	17.3 nM	5.8 nM	25.3%	17.3%	19.8%	17.2%	28.5%	13.7%	29%	16%	21.1%	8.37%						viability, T/C (second compound 0.1 µM, first compound 0.000316 µM): 98.3%; viability, T/C (second compound 0.1 µM, first compound 0.001 µM): 96.3%; viability, T/C (second compound 0.1 µM, first compound 0.00316 µM): 64.8%; viability, T/C (second compound 0.1 µM, first compound 0.01 µM): 47%; viability, T/C (second compound 0.316 µM, first compound 0.000316 µM): 111%; viability, T/C (second compound 0.316 µM, first compound 0.001 µM): 93.6%; viability, T/C (second compound 0.316 µM, first compound 0.00316 µM): 74.1%; viability, T/C (second compound 0.316 µM, first compound 0.01 µM): 34.8%; viability, T/C (second compound 1 µM, first compound 0.000316 µM): 108%; viability, T/C (second compound 1 µM, first compound 0.001 µM): 103%; viability, T/C (second compound 1 µM, first compound 0.00316 µM): 91.8%; viability, T/C (second compound 1 µM, first compound 0.01 µM): 62.9%; viability, T/C (second compound 3.16 µM, first compound 0.000316 µM): 109%; viability, T/C (second compound 3.16 µM, first compound 0.001 µM): 103%; viability, T/C (second compound 3.16 µM, first compound 0.00316 µM): 99.8%; viability, T/C (second compound 3.16 µM, first compound 0.01 µM): 69%; viability, T/C (second compound 10 µM, first compound 0.000316 µM): 64.5%; viability, T/C (second compound 10 µM, first compound 0.001 µM): 64.3%; viability, T/C (second compound 10 µM, first compound 0.00316 µM): 58.8%; viability, T/C (second compound 10 µM, first compound 0.01 µM): 41.9%
CC1(C)CCC(CN2CCN(c3ccc(C(=O)NS(=O)(=O)c4ccc(NCC5CCOCC5)c([N+](=O)[O-])c4)c(Oc4cnc5[nH]ccc5c4)c3)CC2)=C(c2ccc(Cl)cc2)C1 + COc1cc2nc(C)nc(NC(C)c3cc(N)cc(C(F)(F)F)c3)c2cc1OC1CCOC1	2190 nM	2070 nM	1980 nM	2070 nM	472 nM	102%	99.2%	92.5%	107%	104%	108%	106%	103%	77.3%	91.8%	108%	99.7%	26.4%	0.68%	104%	viability, T/C [16]: 103%; viability, T/C [17]: 19.9%; viability, T/C [18]: 0.6%; viability, T/C [19]: 110%; viability, T/C [20]: 100%; viability, T/C [21]: 15.7%; viability, T/C [22]: 1.19%; viability, T/C [23]: 111%; viability, T/C [24]: 115%; viability, T/C [25]: 15.6%; viability, T/C [26]: 1.05%; viability, T/C [27]: 53.2%; viability, T/C [28]: 33.6%; viability, T/C [29]: 5.28%; viability, T/C [30]: 0.64%
COc1cc(Nc2ncc3c(n2)-c2ccc(Cl)cc2C(c2c(F)cccc2OC)=NC3)ccc1C(=O)O + COc1cc2nc(C)nc(NC(C)c3cc(N)cc(C(F)(F)F)c3)c2cc1OC1CCOC1	< 31.6 nM	< 31.6 nM	< 31.6 nM	< 31.6 nM	< 31.6 nM	30.3%	29%	26.8%	27.7%	26.8%	24.7%	22.2%	22.6%	14.1%	17.8%	26.4%	29.2%	38.8%	38.7%	26.1%	viability, T/C [16]: 27.4%; viability, T/C [17]: 33.7%; viability, T/C [18]: 36.6%; viability, T/C [19]: 23.5%; viability, T/C [20]: 25.7%; viability, T/C [21]: 31.3%; viability, T/C [22]: 34.2%; viability, T/C [23]: 22.1%; viability, T/C [24]: 20.6%; viability, T/C [25]: 24.3%; viability, T/C [26]: 22.4%; viability, T/C [27]: 10.2%; viability, T/C [28]: 7.56%; viability, T/C [29]: 14%; viability, T/C [30]: 7.41%
COc1cc2nccc(Oc3ccc(NC(=O)C4(C(=O)Nc5ccc(F)cc5)CC4)cc3)c2cc1OC + COc1cc2nc(C)nc(NC(C)c3cc(N)cc(C(F)(F)F)c3)c2cc1OC1CCOC1	882 nM	866 nM	779 nM	726 nM	187 nM	98.2%	112%	105%	102%	108%	108%	114%	114%	92.2%	66.9%	114%	12.5%	15.8%	101%	97.8%	viability, T/C [16]: 13.9%; viability, T/C [17]: 13.5%; viability, T/C [18]: 102%; viability, T/C [19]: 82.2%; viability, T/C [20]: 11.3%; viability, T/C [21]: 10.7%; viability, T/C [22]: 101%; viability, T/C [23]: 80.7%; viability, T/C [24]: 9.28%; viability, T/C [25]: 1.53%; viability, T/C [26]: 104%; viability, T/C [27]: 39.4%; viability, T/C [28]: 1.55%; viability, T/C [29]: 0.17%; viability, T/C [30]: 89%
